Test results reported in PubChem BioAssay (NCI).
Values joined by “and” are separate entries in the source; they are usually repeats but may differ in a detail not shown here. Equal entries are not always repeated.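 Growth conditions: 96-well plates. Treatment: test compound, 48 hours, 5 concentrations. Analysis: linear interpolation between bracketing concentrations; unreached endpoints set to highest concentration. Abbreviation: GI50, concentration required for 50% inhibition of growth. TGI denotes the concentration required for complete inhibition of growth.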 Where a SMILES comes first, the peptide text is derived from it. Bridges are numbered along the chain shown (N, C = ends). [ ]: non-standard residue; d: D form. ξ: configuration not given here. ξThr(3R) = C[C@@H](O)C(N)C(=O)O; S5 = C=CCCC[C@](C)(N)C(=O)O

Legend:
Test in all cases: inhibition of tumour cell growth, NCI panel, 48 h
DU-145 prostate = test system: DU-145 prostate
HOP-62 NSCLC = test system: HOP-62 NSCLC
K-562 leukemia = test system: K-562 leukemia
KM12 colon = test system: KM12 colon
M14 melanoma = test system: M14 melanoma
NCI-H522 lung = test system: NCI-H522 lung
RXF 393 renal = test system: RXF 393 renal
SF-268 CNS = test system: SF-268 CNS
SK-MEL-5 melanoma = test system: SK-MEL-5 melanoma
HL-60(TB) leukemia = test system: HL-60(TB) leukemia

SMILES	GI50 (DU-145 prostate)	TGI (DU-145 prostate)	GI50 (HOP-62 NSCLC)	TGI (HOP-62 NSCLC)	GI50 (K-562 leukemia)	TGI (K-562 leukemia)	GI50 (KM12 colon)	TGI (KM12 colon)	GI50 (M14 melanoma)	TGI (M14 melanoma)	GI50 (NCI-H522 lung)	TGI (NCI-H522 lung)	GI50 (RXF 393 renal)	TGI (RXF 393 renal)	GI50 (SF-268 CNS)	TGI (SF-268 CNS)	GI50 (SK-MEL-5 melanoma)	TGI (SK-MEL-5 melanoma)	TGI (HL-60(TB) leukemia)	GI50 (HL-60(TB) leukemia)
O=C1c2cccnc2C(=O)c2c1c(C(=O)NCCn1ccnc1)c1ccccn21	3.09 µM	12.4 µM	1.28 µM	11.3 µM	4.39 µM	> 100 µM	2.96 µM	19 µM	1.91 µM	6.13 µM	1.82 µM	4.67 µM	3.88 µM	15.7 µM	2.86 µM	16.8 µM	1.06 µM	2.26 µM	–	–
CN(C)Cc1ccc(C(C)(C)C)cc1-c1cc(C(C)(C)C)ccc1CN(C)C	–	> 100 µM	–	> 100 µM	–	> 100 µM	–	> 100 µM	–	41.6 µM	–	> 100 µM	–	> 100 µM	–	> 100 µM	–	> 100 µM	> 100 µM	–
CC(=O)N[C@H](C(=O)N[C@@H](CCCNC(=N)N)C(=O)N[C@@H](CCCCN)C(=O)N[C@@H](CCCNC(=N)N)C(=O)NC(C(=O)N[C@@H](CC(C)C)C(=O)N[C@@H](CCCNC(=N)N)C(=O)N[C@@]1(C)CCC/C=C\CCC[C@@](C)(C(=O)N[C@@H](CCCNC(=N)N)C(=O)N[C@@H](CCC(=O)O)C(=O)N[C@@H](CC(C)C)C(=O)N[C@H](C(=O)N[C@@H](CCC(=O)O)C(N)=O)C(C)C)NC(=O)[C@H](CCC(N)=O)NC(=O)[C@H](CC(C)C)NC(=O)[C@H](CC(C)C)NC1=O)[C@@H](C)O)C(C)C (stereo partly drawn) (Ac-VRKR[ξThr(3R)]LR[S5]LLQ[S5]RELVE-NH2; staple (Z) 8-12)	2.68 µM	9.2 µM	3.24 µM	11.8 µM	9.12 µM	19.7 µM	1.99 µM	8.03 µM	4.27 µM	11.5 µM	5.75 µM	16.4 µM	2.7 µM	12.1 µM	2.1 µM	8.62 µM	2.01 µM	8.43 µM	19.2 µM	7.23 µM
CC(c1ccccc1)[C@@H](C(=O)Nc1ccc(I)cc1F)N1C(=O)N[C@H](c2ccc(OC[C@H](O)CO)cc2)C1=O (stereo not given in full)	15.3 µM	> 25 µM	17 µM	> 25 µM	9.38 µM	> 25 µM	2.4 µM	> 25 µM	0.0707 µM	5.74 µM	> 17.8 µM	> 25 µM	4.2 µM	> 22.6 µM	15.2 µM	> 25 µM	0.85 µM	> 25 µM	> 25 µM	0.313 µM
CCCCCC[C@@H](C)Nc1nc2ccccc2c2occc12	9.79 µM	21.5 µM	14.8 µM	28 µM	19.9 µM	> 100 µM	14 µM	34.4 µM	11.2 µM	23.2 µM	1.83 µM	13.3 µM	13.9 µM	34.4 µM	14.7 µM	38.7 µM	2.89 µM	18 µM	62.9 µM	22.4 µM
COc1c(O)cc2c(c1O)C(=O)C1=C(CCCC1)C2=O	–	74.3 µM	–	> 100 µM	–	–	–	65.5 µM	–	> 100 µM	–	31.8 µM	–	45 µM	–	> 100 µM	–	66 µM	31.9 µM	–
CCN(CC)CCC(CNc1ccnc2cc(Cl)ccc12)c1ccccc1 (stereo not given)	32.9 µM	> 100 µM	12.1 µM	48.9 µM	1.46 µM	5.61 µM	7.29 µM	75.1 µM	1.71 µM	3.19 µM	2.58 µM	11.7 µM	2.3 µM	5.65 µM	7.85 µM	41 µM	1.69 µM	3.07 µM	29.2 µM	4.22 µM
C[C@H](CS)C(=O)N1c2ccccc2C[C@H]1C(=O)O	–	> 100 µM	–	> 100 µM	–	> 100 µM	–	> 100 µM	–	–	–	> 100 µM	–	–	–	> 100 µM	–	> 100 µM	> 100 µM	–
CC(=O)OC(C)(C)/C=C/C(=O)[C@](C)(O)[C@H]1[C@H](O)C[C@@]2(C)[C@@H]3CC=C4[C@@H](C=C(O)C(=O)C4(C)C)[C@]3(C)C(=O)C[C@]12C	0.0514 µM	0.0997 µM and 0.689 µM	–	–	–	4.97 µM and 9.17 µM and 14 µM	–	5.61 µM and 3.46 µM and 4.83 µM	0.0193 µM	0.722 µM and 1.01 µM	–	196 nM [middle of 4 runs]	–	46.1 nM [middle of 4 runs]	–	–	–	–	–	–
CCN(CC)c1ccc2nc3c4ccccc4c(=O)cc-3n(-c3ccccc3)c2c1	2.66 µM	9.75 µM	1.08 µM	3.6 µM	2.41 µM	> 100 µM	1.69 µM	4.46 µM	1.91 µM	3.8 µM	–	–	1.94 µM	5.83 µM	2.85 µM	12.9 µM	0.444 µM	1.74 µM	0.821 µM	0.273 µM
Cc1ccc(Cl)cc1NC(=O)c1cc2ccccc2cc1O	0.479 µM	> 24.7 µM	0.224 µM	0.673 µM	0.365 µM	10.1 µM	0.396 µM	1.89 µM	0.325 µM	1.21 µM	0.231 µM	0.719 µM	0.55 µM	2.23 µM	0.426 µM	> 32.6 µM	0.277 µM	0.824 µM	0.768 µM	0.267 µM
CCOc1ccc2c(c1)CN(Cc1ccc(Cl)cc1)CO2	22.8 µM	53.2 µM	26.2 µM	> 100 µM	17 µM	57 µM	18.3 µM	35.5 µM	–	–	15.9 µM	34 µM	13.8 µM	29.3 µM	28.1 µM	> 100 µM	15.2 µM	28.9 µM	42.8 µM	19.2 µM
CCN(CC)c1ccc(C2NC(=O)c3ccccc3N2)cc1 (stereo not given)	–	> 100 µM	–	> 100 µM	–	> 100 µM	–	–	–	> 100 µM	–	> 100 µM	–	> 100 µM	–	> 100 µM	–	> 100 µM	–	–
CN(C)C=NC1CCC(C(C)(C)C)CC1 (stereo not given)	–	61.3 µM	–	32.3 µM	–	45.1 µM	–	–	–	33.6 µM	–	31.8 µM	–	45.6 µM	–	96 µM	–	31 µM	33.2 µM	–
O=C1C=CC(=Nc2cccc3c(N=C4C=CC(=O)O4)cccc23)O1	–	> 100 µM	–	> 100 µM	–	55.6 µM	–	> 100 µM	–	87.8 µM	–	34.3 µM	–	50 µM	–	> 100 µM	–	> 100 µM	–	–
